The nature of series [1]: Apparent permeability from basolateral to apical side in human Caco2 cells assessed as drug recovery at 10 uM after 40 mins by HPLC-MS/MS analysis. Type of series: ADME, cell-based. To be noted: Caco-2, read-out: Drug recovery. For orientation: Caco-2 cells form a polarised layer with tight junctions and transporters.
Series [2] in a line: Photostability of the compound in DMSO/H20 (1:1) solvent assessed as compound degradation at 100 to 600 uM under irradiation at 390 to 470 nm after mins by HPLC analysis. The class given is physicochemical. Particulars: DMSO/H2O (1:1); read-out: Drug degradation.
Series [3] in a line: Aqueous solubility at steady-state in pH 7.4 PBS at 200 uM after 24 hrs by HPLC method. Type of series: physicochemical. Particulars: for solubility at 24 h, 200 µM: PBS, pH 7.4.
The species named for another series is Oryctolagus cuniculus. Kind of series: Potency index, ratio of (S)-blebbistatin (S)-1 IC50 to compound IC50 for inhibition of rabbit full length skeletal muscle myosin 2 ATPase activity by CytoPhos reagent based ATPase assay.
Series [4] can be described thus: Apparent permeability from apical to basolateral side in human Caco2 cells at 10 uM after 60 mins by HPLC-MS/MS analysis. The class given is ADME, cell-based. Particulars: Caco-2.
Series [5] is described as follows: Apparent permeability from apical to basolateral side in human Caco2 cells assessed as drug recovery at 10 uM after 60 mins by HPLC-MS/MS analysis. Type of series: ADME, cell-based. To be noted: Caco-2, read-out: Drug recovery.
Series [6] can be described thus: Apparent permeability from basolateral to apical side in human Caco2 cells at 10 uM after 40 mins by HPLC-MS/MS analysis. The class given is ADME, cell-based. Particulars: Caco-2.
A short description of series [7]: Photostability of the compound in DMSO/H20 (1:1) solvent assessed as half life for compound degradation at 100 to 600 uM under irradiation at 390 to 470 nm by HPLC analysis. Type of series: physicochemical. Particulars: DMSO/H2O (1:1).
Series [8] in a line: Inhibition of rabbit full length skeletal muscle myosin 2 ATPase activity using Pre-formed rabbit skeletal muscle F-actin filaments and ATP incubated for 1 hr by CytoPhos reagent based ATPase assay. Also on record: species or system Oryctolagus cuniculus.
Series [9] can be described thus: Photostability of the compound in DMSO alone solvent assessed as compound degradation at 100 to 600 uM under irradiation at 390 to 470 nm up to 90 mins by HPLC analysis. The class given is physicochemical. To be noted: 1.5 h.
A short description of series [10]: Photostability of the compound in PBS/MeOH at 20 uM under blue light irradiation at 488 nm assessed as compound degradation after 30 mins by fluorescence spectroscopic analysis. Type of series: physicochemical. To be noted: buffer, 0.5 h.

≈ marks a conversion by molar mass, not a printed value.

For `Cc1ccc2c(c1)C(=O)[C@]1(O)CCN(c3ccc([N+](=O)[O-])cc3)C1=N2`, the recovery at 40 min, 10 µM in series [1] was determined as 72%. Moreover, the degraded at up to 600 µM in [2] was 33%. In series [3], this compound gave a solubility at 24 h, 200 µM of 31.7 µM (≈ 10.7 µg/mL). Further, in the series filed under Oryctolagus cuniculus, the Ratio IC50 amounted to 2.5. In addition, the Papp A→B at 1 h, 10 µM in [4] was 32.5 ×10⁻⁶ cm/s. Further, in series [5], the recovery at 1 h, 10 µM stood at 34%. Besides, the Papp B→A at 40 min, 10 µM in series [6] was 2.23 ×10⁻⁶ cm/s. The half-life at up to 600 µM in series [7] is > 90 min.

On to `CCC(=O)Nc1cccc(N2CC[C@@]3(O)C(=O)c4cc(C)ccc4N=C23)c1`, for which the Ratio IC50 in the series listed under Oryctolagus cuniculus was < 0.02. For the same compound, the IC50 in series [8] is > 100 µM.

Take `Cc1ccc2c(c1)C(=O)[C@]1(O)CCN(c3cccc(C(=O)O)c3)C1=N2`: the Ratio IC50 in the series filed under Oryctolagus cuniculus is < 0.02.

As to `Cc1ccc2c(c1)C(=O)[C@]1(O)CCN(c3cccc(N)c3)C1=N2`, the recovery at 40 min, 10 µM in [1] stood at 74%. Moreover, the concentration in solution in series [3] (solubility at 24 h, 200 µM) was 186 µM (≈ 57.2 µg/mL). Further, in the series listed under Oryctolagus cuniculus, the Ratio IC50 amounted to 0.15. In series [4], the Papp A→B at 1 h, 10 µM was 62.7 ×10⁻⁶ cm/s. Moreover, in series [5], the recovery at 1 h, 10 µM was 79%. Further, the Papp B→A at 40 min, 10 µM in [6] came out at 26.2 ×10⁻⁶ cm/s. Also, in [7], the half-life at up to 600 µM came to 13 min.

As to `C=CC(=O)Nc1cccc(N2CC[C@@]3(O)C(=O)c4cc(C)ccc4N=C23)c1`, in the series listed under Oryctolagus cuniculus, the Ratio IC50 was < 0.02. The 50% inhibitory concentration (IC50) in series [8] was > 100 µM.

As for `C=CCN(CC=C)c1cccc(N2CC[C@@]3(O)C(=O)c4cc(C)ccc4N=C23)c1`, the IC50 in series [8] was > 10.8 µM.

Turning to `C=CCOc1cccc(N2CC[C@@]3(O)C(=O)c4cc(C)ccc4N=C23)c1`, the concentration in solution in series [3] (solubility at 24 h, 200 µM) was 2.83 µM (≈ 0.986 µg/mL). Further, the Ratio IC50 in the series filed under Oryctolagus cuniculus is 0.23. The compound also gave an IC50 in series [8] of 9.41 µM. Besides, the half-life at up to 600 µM in series [7] turned out to be 15 min.

Turning to `Cc1ccc2c(c1)C(=O)[C@]1(O)CCN(c3ccc4cc[nH]c4c3)C1=N2`, the Ratio IC50 in the series listed under Oryctolagus cuniculus was found to be 0.12. The compound also had a half-maximal inhibitory concentration (IC50) in series [8] of 7.2 µM.

In the case of `Cc1ccc2c(c1)C(=O)[C@]1(O)CCN(c3ccccc3)C1=N2`, the recovery at 40 min, 10 µM in [1] is 66%. Also, the Stability result in [9] and in series [10] was “Stable” throughout. The solubility in series [3] (buffer, pH 7.4, 24 h, 200 µM) was 6.18 µM (≈ 1.81 µg/mL). For the same compound, the Ratio IC50 in the series listed under Oryctolagus cuniculus was determined as 1. Moreover, in series [4], the apparent permeability from apical to basolateral (Papp A→B) at 1 h, 10 µM amounted to 60.5 ×10⁻⁶ cm/s. The recovery at 1 h, 10 µM in series [5] was 66%. In series [8], the IC50 lay in the range of 0.873 to 2.16 µM. Also, the basolateral-to-apical permeability (Papp B→A) at 40 min, 10 µM in series [6] turned out to be 19.2 ×10⁻⁶ cm/s. In addition, the half-life at up to 600 µM in series [7] worked out at 14 min.

Take `C=CC(=O)Oc1cccc(N2CC[C@@]3(O)C(=O)c4cc(C)ccc4N=C23)c1`: the Ratio IC50 in the series listed under Oryctolagus cuniculus amounted to 0.04. In series [8], this compound had an IC50 of 57.6 µM.

With `Cc1ccc2c(c1)C(=O)[C@]1(O)CCN(c3cccc(C(N)=O)c3)C1=N2`, the Ratio IC50 in the series listed under Oryctolagus cuniculus is < 0.02.

For `Cc1ccc2c(c1)C(=O)[C@]1(O)CCN(c3ccc(N)cc3)C1=N2`, the recovery at 40 min, 10 µM in series [1] was determined as 82%. The solubility at 24 h, 200 µM in series [3] is > 200 µM. In addition, the Ratio IC50 in the series filed under Oryctolagus cuniculus turned out to be 0.19. Also, in series [4], the Papp A→B at 1 h, 10 µM was determined as 69.4 ×10⁻⁶ cm/s. Further, the recovery at 1 h, 10 µM in [5] came out at 85%. Besides, the apparent permeability from basolateral to apical (Papp B→A) at 40 min, 10 µM in series [6] turned out to be 31.1 ×10⁻⁶ cm/s. The half-life at up to 600 µM in series [7] stood at 44 min.

With `Cc1ccc2c(c1)C(=O)[C@]1(O)CCN(c3cccc(O)c3)C1=N2`, the recovery at 40 min, 10 µM in [1] is 70%. The compound further yielded a solubility at 24 h, 200 µM in series [3] of 193 µM (≈ 59.5 µg/mL). Further, in the series listed under Oryctolagus cuniculus, the Ratio IC50 was 0.11. Further, the Papp A→B at 1 h, 10 µM in [4] came to 28.5 ×10⁻⁶ cm/s. In series [5], the recovery at 1 h, 10 µM is 49%. Also, in [6], the Papp B→A at 40 min, 10 µM was found to be 17.2 ×10⁻⁶ cm/s. For the same compound, in series [7], the half-life at up to 600 µM was 11 min.

Take `Cc1ccc2c(c1)C(=O)[C@]1(O)CCN(c3ccc4ccccc4c3)C1=N2`: the Ratio IC50 in the series filed under Oryctolagus cuniculus was < 0.02. For the same compound, in series [8], the half-inhibitory concentration (IC50) is > 40 µM.

The compound `Cc1ccc2c(c1)C(=O)[C@]1(O)CCN(c3ccc(O)cc3)C1=N2` showed a solubility at 24 h, 200 µM in series [3] of 82.4 µM (≈ 25.4 µg/mL). Further, the Ratio IC50 in the series listed under Oryctolagus cuniculus is 0.16. In addition, in [8], the half-maximal inhibitory concentration (IC50) worked out at 5.47 µM. Moreover, in series [7], the half-life at up to 600 µM is 4.7 min.

For the compound `Cc1ccc2c(c1)C(=O)[C@]1(O)CCN(c3ccc(OCc4ccccc4)cc3)C1=N2`, the Ratio IC50 in the series filed under Oryctolagus cuniculus is < 0.02. Besides, in series [8], the concentration for half-maximal inhibition (IC50) is > 40 µM.

`CCC(=O)Oc1cccc(N2CC[C@@]3(O)C(=O)c4cc(C)ccc4N=C23)c1`: the Ratio IC50 in the series listed under Oryctolagus cuniculus came out at 0.09. This compound yielded an IC50 in [8] of 23.5 µM.

Take `Cc1ccc2c(c1)C(=O)[C@]1(O)CCN(c3ccc4c(c3)NCC4)C1=N2`: the Ratio IC50 in the series filed under Oryctolagus cuniculus amounted to 0.11. In series [8], this compound displayed an IC50 of 7.7 µM.

With `Cc1ccc2c(c1)C(=O)[C@]1(O)CCN(c3cccc(C#N)c3)C1=N2`, the Ratio IC50 in the series listed under Oryctolagus cuniculus worked out at 0.04.

For the compound `C=CCOc1ccc(N2CC[C@@]3(O)C(=O)c4cc(C)ccc4N=C23)cc1`, the recovery at 40 min, 10 µM in series [1] came to 65%. This compound displayed a solubility at 24 h, 200 µM in series [3] of 2.75 µM (≈ 0.958 µg/mL). The Ratio IC50 in the series filed under Oryctolagus cuniculus amounted to 2.3. In addition, the apical-to-basolateral permeability (Papp A→B) at 1 h, 10 µM in series [4] stood at 29.7 ×10⁻⁶ cm/s. Also, the recovery at 1 h, 10 µM in [5] is 32%. In addition, the half-inhibitory concentration (IC50) in series [8] worked out at 0.38 µM. For the same compound, in series [6], the Papp B→A at 40 min, 10 µM is 7.58 ×10⁻⁶ cm/s. For the same compound, the half-life at up to 600 µM in [7] turned out to be 8.8 min.

Broadly, the solubility is the dissolved amount per volume that the medium holds. A higher solubility goes with much dissolved substance. In general, Papp A→B refers to how fast a substance crosses the layer from the apical side. One may read the Papp B→A as how fast a substance crosses the layer from the basolateral side. The half-life is the time in which the quantity being followed falls by half. As usually defined, the IC50 is the midpoint of a concentration-inhibition curve. Low values mean greater potency in that assay, high ones weaker potency in that assay.
